Source: PMC10145249, “Synthesis and Evaluation of ^68Ga-Labeled (2S,4S)-4-Fluoropyrrolidine-2-Carbonitrile and (4R)-Thiazolidine-4-Carbonitrile Derivatives as Novel Fibroblast Activation Protein-Targeted PET Tracers for Cancer Imaging” (Molecules, 2023)
Read-outs that look alike come from different tables or passages of the source.

What was measured:
FAP [1] = tested on: FAP; design: method as in PMID 24617858; settings: cited from earlier work; for IC50: (4-quinolinoyl)-glycyl-2-cyanopyrrolidine series, read-out: IC50 (FAP-inhibitory potency)
[2] = tested on: HEK293T:hFAP tumor-bearing mice; test: Ex vivo biodistribution in HEK293T:hFAP tumor xenograft mouse model
Experimental: (§1) Imaging and biodistribution studies were performed using immunodeficient male NRG (NOD.Cg-Rag1tm1Mom Il2rgtm1Wjl/SzJ) mice. All experiments were conducted according to the guidelines established by the Canadian Council on Animal Care and approved by Animal Ethics Committee of the University of British Columbia. The mice were subcutaneously inoculated with 7.5 × 10^6 HEK293T:hFAP cells in the left dorsal flank. When the tumors grew to 6–8 mm in diameter, the mice were used for PET/CT imaging and biodistribution studies.
For biodistribution studies, the mice were injected with ~1–2 MBq (0.01–0.04 nmol) of the ^68Ga-labeled tracer, using the exact procedures described above. At 1 h post injection, the mice were euthanized by CO2 inhalation. Blood was withdrawn by cardiac puncture and organs/tissues of interest were collected, weighed, and counted using a Perkin Elmer (Waltham, MA, USA) Wizard2 2480 automatic gamma counter. The percent injected dose per gram of tissues (%ID/g) for different tracers was calculated.
(§2) For blocking studies, HEK293T:hFAP tumor-bearing mice were co-injected with [^68Ga]Ga-SB03045 and excess nonradioactive Ga-FAPI-04 (0.5 mg/mouse) as a competitor. Imaging and biodistribution were performed at 1 h pi, similar to the process for the unblocked mice.

[3] = LogD7.4 measurement (n-octanol / phosphate buffer pH 7.4); type: physicochemical; settings: n-octanol / 0.1 M phosphate buffer pH 7.4, n = 3
Experimental: Briefly, ^68Ga-labeled tracers (1.11–1.48 MBq) were aliquoted into vials containing 3 mL of n-octanol and 3 mL of 0.1 M phosphate buffer (pH 7.4) in triplicate. Each vial was then vortexed (1 min) and centrifuged (5000 RPM, 10 min). The n-octanol and aqueous layers were sampled (1 mL) and counted using an automated gamma counter and the LogD7.4 value was calculated using the following equation: LogD7.4=log10counts in n-octanol phase/counts in buffer phase

[4] = design: method as in PMID 30072500; settings: patients, preliminary dosimetry study; cited from earlier work
[5] = tested on: HEK293T:hFAP tumor xenografts; test: PET/CT imaging in HEK293T:hFAP tumor-bearing mice; type: in vivo; settings: for Visualization of tumor xenografts in PET/CT images / Excretion pathway: 1 h pi; for Excretion pathway: PET/CT
Experimental: as §1
PET/CT imaging experiments were carried out using a Siemens Inveon micro PET/CT scanner (Knoxville, TN, USA). Tumor-bearing mice were injected with ~4 to 6 MBq (0.02–0.13 nmol) of ^68Ga-labeled tracer through a lateral caudal tail vein under 2.5% isoflurane in oxygen anesthesia, followed by recovery and free roaming in their cage during the uptake period. A 10 min localization CT scan was acquired using 3 overlapping positions to cover each entire mouse. A CT scan was used for attenuation and scatter correction, and anatomical localization. A list mode acquisition was then performed for 15 min at 1 h pi with each mouse under isoflurane sedation. The images were reconstructed using 3D OSEM/MAP iterative methods.
as §2

recombinant human FAP = biological target: T1, recombinant human FAP (Homo sapiens, UniProt Q12884); test: In vitro fluorescence-based FAP enzymatic inhibition assay (Suc-Gly-Pro-AMC substrate); type: biochemical; settings: for IC50: recombinant human FAP, Suc-Gly-Pro-AMC, n = 3
T1 construct: purchased Biolegend
T1 sequence (Q12884 1-760): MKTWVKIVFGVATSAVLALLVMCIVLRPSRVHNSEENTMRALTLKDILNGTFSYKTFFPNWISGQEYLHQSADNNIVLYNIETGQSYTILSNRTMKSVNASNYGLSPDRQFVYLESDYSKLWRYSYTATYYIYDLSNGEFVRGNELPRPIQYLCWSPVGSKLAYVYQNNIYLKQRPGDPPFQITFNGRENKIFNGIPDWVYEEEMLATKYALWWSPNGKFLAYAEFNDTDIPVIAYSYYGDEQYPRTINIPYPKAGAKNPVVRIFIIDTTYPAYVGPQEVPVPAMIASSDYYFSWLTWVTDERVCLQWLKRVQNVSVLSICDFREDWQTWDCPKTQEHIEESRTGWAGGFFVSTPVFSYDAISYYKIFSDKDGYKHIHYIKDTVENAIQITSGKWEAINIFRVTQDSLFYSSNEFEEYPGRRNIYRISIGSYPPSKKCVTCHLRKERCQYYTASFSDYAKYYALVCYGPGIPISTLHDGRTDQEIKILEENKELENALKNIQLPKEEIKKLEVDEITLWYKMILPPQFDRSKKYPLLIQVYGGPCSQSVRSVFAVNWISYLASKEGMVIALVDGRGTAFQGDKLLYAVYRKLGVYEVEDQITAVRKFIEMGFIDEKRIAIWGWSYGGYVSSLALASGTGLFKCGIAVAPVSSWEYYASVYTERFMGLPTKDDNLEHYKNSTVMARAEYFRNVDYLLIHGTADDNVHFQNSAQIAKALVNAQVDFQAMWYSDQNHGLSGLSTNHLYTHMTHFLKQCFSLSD
Experimental: The half-maximal inhibitory concentration (IC50) values of the FAP-targeted ligands were measured using an in vitro enzymatic assay. Briefly, recombinant human FAP (Biolegend, San Diego, CA, USA; 0.2 µg/mL, 50 µL) was added into a Costar clear bottom 96-well plate. PBS and varied concentrations (25 pM to 1 µM) of ^natGa-complexed ligands were added to each well (in duplicate) containing the recombinant human FAP. After being incubated for 30 min at 37 °C, Suc-Gly-Pro-AMC (Bachem, Bubendorf, Switzerland; 20 mM, 50 µL) was added to each well. The velocities of AMC release were measured kinetically at λex = 380 nm, λem = 460 nm at 60 min at 37 °C using a FlexStation 3 Multi-Mode Microplate Reader.

FAP [6] = tested on: FAP; design: method as in PMID 20718420; settings: substituted 4-carboxymethylpyroglutamic acid scaffold; read-out: IC50 (FAP-inhibitory activity); cited from earlier work
[7] = HEK293T:hFAP tumor-bearing mice, 1 h pi, unblocked
[8] = 0.5 mg/mouse natGa-FAPI-04, 1 h pi
[9] = HEK293T:hFAP tumor-bearing mice, 1 h pi, blocked: co-injected with natGa-FAPI-04 (0.5 mg/mouse)

N#CC1CC(F)CN1C(=O)CNC(=O)c1ccnc2ccccc12 [(4S)-fluoropyrrolidine]
IC50 (FAP [1]): 3.3 nM

N#C[C@@H]1CC(F)(F)CN1C(=O)CNC(=O)c1ccnc2ccc(OCCCN3CCN(C(=O)CN4CCN5CCN(CC(=O)O)CCN(CC4)CC(=O)[O][68Ga+][O]C(=O)C5)CC3)cc12 [[^68Ga]Ga-FAPI-04, reference compound]
Adrenal Glands uptake [2, 7]: 1.31 ± 0.60 %ID/g
Blood uptake [2, 7]: 1.20 ± 0.30 %ID/g
Bone uptake [2, 7]: 3.79 ± 1.36 %ID/g
Brain uptake [2, 7]: 0.05 ± 0.01 %ID/g
Fat uptake [2, 7]: 0.14 ± 0.06 %ID/g
Heart uptake [2, 7]: 0.37 ± 0.08 %ID/g
Kidneys uptake [2, 7]: 1.88 ± 0.18 %ID/g
Liver uptake [2, 7]: 0.40 ± 0.07 %ID/g
Lungs uptake [2, 7]: 0.80 ± 0.16 %ID/g
Muscle uptake [2, 7]: 0.76 ± 0.20 %ID/g
Pancreas uptake [2, 7]: 0.44 ± 0.16 %ID/g
Small Intestines uptake [2, 7]: 0.37 ± 0.07 %ID/g
Spleen uptake [2, 7]: 0.60 ± 0.14 %ID/g
Stomach uptake [2, 7]: 0.16 ± 0.19 %ID/g
Testes uptake [2, 7]: 0.28 ± 0.04 %ID/g
Tumor/Blood uptake ratio [2, 7]: 10.5 ± 3.25
Tumor/Bone uptake ratio [2, 7]: 3.49 ± 1.41
Tumor/Kidney uptake ratio [2, 7]: 6.41 ± 1.52
Tumor/Muscle uptake ratio [2, 7]: 16.8 ± 5.73
LogD7.4 [3]: −1.92 ± 0.35
Drop of tumor uptake from 1 to 3 h post-injection [4]: 25%

N#C[C@@H]1C[C@H](F)CN1C(=O)CNC(=O)c1ccnc2ccc(OCCCN3CCN(C(=O)CN4CCN5CCN(CC(=O)O)CCN(CC4)CC(=O)[O][68Ga+][O]C(=O)C5)CC3)cc12 [[^68Ga]Ga-SB03045]
Reduction in bone uptake by co-injection of excess natGa-FAPI-04 [2, 8]: ~ 97%
Reduction of average tumor uptake by co-injection of natGa-FAPI-04 [2, 8]: ~ 96%
Adrenal Glands uptake [2, 9]: 0.14 ± 0.08 %ID/g
Blood uptake [2, 9]: 0.19 ± 0.12 %ID/g
Bone uptake [2, 9]: 0.09 ± 0.05 %ID/g
Brain uptake [2, 9]: 0.01 ± 0.01 %ID/g
Fat uptake [2, 9]: 0.04 ± 0.02 %ID/g
Heart uptake [2, 9]: 0.05 ± 0.03 %ID/g
Kidneys uptake [2, 9]: 1.03 ± 0.43 %ID/g
Liver uptake [2, 9]: 0.13 ± 0.04 %ID/g
Lungs uptake [2, 9]: 0.15 ± 0.09 %ID/g
Muscle uptake [2, 9]: 0.05 ± 0.03 %ID/g
Pancreas uptake [2, 9]: 0.04 ± 0.03 %ID/g
Small Intestines uptake [2, 9]: 0.12 ± 0.06 %ID/g
Spleen uptake [2, 9]: 0.10 ± 0.05 %ID/g
Stomach uptake [2, 9]: 0.07 ± 0.06 %ID/g
Testes uptake [2, 9]: 0.06 ± 0.03 %ID/g
Tumor uptake [2, 9]: 0.51 %ID/g
Tumor/Blood uptake ratio [2, 9]: 3.06 ± 1.01
Tumor/Bone uptake ratio [2, 9]: 6.67 ± 2.72
Tumor/Kidney uptake ratio [2, 9]: 0.50 ± 0.01
Tumor/Muscle uptake ratio [2, 9]: 12.4 ± 5.48
Adrenal Glands uptake [2, 7]: 0.49 ± 0.47 %ID/g
Blood uptake [2, 7]: 1.31 ± 0.43 %ID/g
Bone uptake [2, 7]: 3.48 ± 1.02 %ID/g
Brain uptake [2, 7]: 0.05 ± 0.01 %ID/g
Fat uptake [2, 7]: 0.14 ± 0.08 %ID/g
Heart uptake [2, 7]: 0.41 ± 0.15 %ID/g
Kidneys uptake [2, 7]: 2.23 ± 0.41 %ID/g
Liver uptake [2, 7]: 0.47 ± 0.10 %ID/g
Lungs uptake [2, 7]: 0.69 ± 0.20 %ID/g
Muscle uptake [2, 7]: 0.83 ± 0.42 %ID/g
Pancreas uptake [2, 7]: 0.52 ± 0.22 %ID/g
Small Intestines uptake [2, 7]: 0.40 ± 0.10 %ID/g
Spleen uptake [2, 7]: 0.49 ± 0.19 %ID/g
Stomach uptake [2, 7]: 0.31 ± 0.04 %ID/g
Testes uptake [2, 7]: 0.26 ± 0.08 %ID/g
Tumor uptake [2, 7]: 11.8 ± 2.35 %ID/g
Tumor/Blood uptake ratio [2, 7]: 9.89 ± 3.80
Tumor/Bone uptake ratio [2, 7]: 3.58 ± 1.07
Tumor/Kidney uptake ratio [2, 7]: 5.41 ± 1.32
Tumor/Muscle uptake ratio [2, 7]: 17.2 ± 8.68
LogD7.4 [3]: −2.81 ± 0.05
Visualization of tumor xenografts in PET/CT images [5]: clearly visualized
Excretion pathway [5]: excreted mainly via the renal pathway
Tumor uptake in PET/CT on co-injection with natGa-FAPI-04 ([5]; blocked, 0.5 mg/mouse natGa-FAPI-04, 1 h pi): reduced the tumor uptake to almost background level

N#C[C@@H]1CSCN1C(=O)CNC(=O)c1ccnc2ccc(OCCCN3CCN(C(=O)CN4CCN5CCN(CC(=O)O)CCN(CC4)CC(=O)[O][68Ga+][O]C(=O)C5)CC3)cc12 [[^68Ga]Ga-SB03058]
Fold lower tumor uptake than [68Ga]Ga-FAPI-04 ([2]; HEK293T:hFAP tumor-bearing mice, 1 h pi): ~ 1.5 fold
Adrenal Glands uptake [2, 7]: 2.50 ± 1.58 %ID/g
Blood uptake [2, 7]: 2.07 ± 0.21 %ID/g
Bone uptake [2, 7]: 4.73 ± 0.52 %ID/g
Brain uptake [2, 7]: 0.11 ± 0.08 %ID/g
Fat uptake [2, 7]: 0.40 ± 0.23 %ID/g
Heart uptake [2, 7]: 0.59 ± 0.09 %ID/g
Kidneys uptake [2, 7]: 2.64 ± 0.28 %ID/g
Liver uptake [2, 7]: 0.62 ± 0.19 %ID/g
Lungs uptake [2, 7]: 1.25 ± 0.11 %ID/g
Muscle uptake [2, 7]: 1.42 ± 0.31 %ID/g
Pancreas uptake [2, 7]: 0.86 ± 0.16 %ID/g
Small Intestines uptake [2, 7]: 0.61 ± 0.05 %ID/g
Spleen uptake [2, 7]: 1.48 ± 1.01 %ID/g
Stomach uptake [2, 7]: 0.26 ± 0.07 %ID/g
Testes uptake [2, 7]: 0.48 ± 0.10 %ID/g
Tumor uptake [2, 7]: 7.93 ± 1.33 %ID/g
Tumor/Blood uptake ratio [2, 7]: 3.82 ± 0.25
Tumor/Bone uptake ratio [2, 7]: 1.67 ± 0.13
Tumor/Kidney uptake ratio [2, 7]: 3.01 ± 0.32
Tumor/Muscle uptake ratio [2, 7]: 5.64 ± 0.62
LogD7.4 [3]: −2.49 ± 0.28
Visualization of tumor xenografts in PET/CT images [5]: clearly visualized
Excretion pathway [5]: excreted mainly via the renal pathway

N#C[C@@H]1C[C@H](F)CN1C(=O)CNC(=O)c1ccnc2ccc(OCCCN3CCN(C(=O)CN4CCN5CCN(CC(=O)O)CCN(CC4)CC(=O)[O][Ga+][O]C(=O)C5)CC3)cc12 [^natGa-SB03045]
IC50 (recombinant human FAP): 1.59 ± 0.45 nM

N#C[C@@H]1CSCN1C(=O)CNC(=O)c1ccnc2ccc(OCCCN3CCN(C(=O)CN4CCN5CCN(CC(=O)O)CCN(CC4)CC(=O)[O][Ga+][O]C(=O)C5)CC3)cc12 [^natGa-SB03058]
FAP-binding potency, fold higher than the di-fluorinated analog (natGa-FAPI-04) (recombinant human FAP): > 5 fold
IC50 (recombinant human FAP): 0.68 ± 0.09 nM
